In article PMC9669019, “Molecular basis for integrin adhesion receptor binding to p21-activated kinase 4 (PAK4)” (Communications Biology, 2022):
Ends that are not written are not given here.

How the values were obtained:
GFP-PAK4-cat = test: GST-integrin β5 fusion pull-down of GFP-PAK4-cat expressed in cells; format: binding, human; conditions: Figure 1C source data
Method: (§1) For pulldowns from cell lysates, human PAK4 constructs were generated in pEGFP (Takara Bio Inc.) by PCR amplification from a pLX304 PAK4 isoform 1 (Uniprot O96013-1) construct kindly provided by Michael Calderwood (Dana-Farber Cancer Institute). Mutations and deletions were introduced by QuikChange mutagenesis or PCR amplification. Chinese hamster ovary (CHO) cells were seeded on 10 cm tissue culture dishes and transiently transfected with GFP-tagged constructs using polyethylenimine (Polysciences). After 24 h, cells were harvested and lysed in buffer X (1 mM NaVO4, 50 mM NaF, 40 mM sodium pyrophosphate, 50 mM NaCl, 150 mM sucrose, 10 mM Pipes, pH 6.8) containing 0.5% Triton X-100, 0.2% deoxycholic acid, and complete EDTA-free protease inhibitor mixture (Roche, Indianapolis, IN, USA) for 15 min at 4 °C. After clarification by centrifugation, lysate was diluted in buffer X-T (buffer X with 0.05% Triton X-100) and incubated with His-tagged integrin tails coupled to Ni-NTA beads for 4 h with rocking at 4 °C. For experiments using purified PAK4cat, protein was incubated with His-tagged integrin tails coupled to Ni-NTA beads in buffer X-T for 2 h with rocking at 4 °C. Beads were then washed three times with buffer X-T, and bound proteins were fractionated by reducing SDS-PAGE and analyzed by immunoblotting with anti-GFP antibodies (600-101-215, Rockland). Immunoblots were imaged on an Odyssey IR imaging system (Li-Cor; Lincoln, NE, USA) and analyzed using Image Studio Lite (Li-Cor; Lincoln, NE, USA). For the quantification of binding from immunoblots, the fluorescence intensity of the band corresponding to bound material was quantified as a fraction of the fluorescence of the input material band for each condition. Loading of integrin tails was assessed by Coomassie Blue staining. Data were analyzed using GraphPad Prism.

GFP-PAK4-Δcat = test: GST-integrin β5 fusion pull-down of GFP-PAK4-Δcat expressed in cells; format: binding, human; conditions: Figure 1C source data
Method: as §1

PAK6 = test: In vitro phosphorylation of integrin β5 tail by PAK6; format: biochemical; conditions: in vitro kinase assay, Fig. 5a
PAK4cat = test: Radioactive kinase assay with MBP as substrate; format: biochemical, human; conditions: in vitro kinase assay, full-length tail 6-50 μM
Method: Impact of full-length cytosolic integrin β5 on kinase activity was assessed using a radioactive assay with myelin basic protein (MBP) as substrate. Assays were performed by addition of 0.1 µM of PAK4cat kinase, 2 µM of MBP, cytosolic full-length integrin β5 ^743–799 (50, 25, 12, and 6 μM), with 12 µM of cold ATP and 0.05 µCi of hot [γ33-P] ATP in Tris buffer (20 mM Tris-HCl (pH 8.0), 0.3 M NaCl, 1 mM TCEP, and 10 mM MgCl2) with a total volume of 25 µL. The reaction was conducted at 30 °C for 7–11 min then stopped by the addition of 5× sample buffer and analyzed by SDS-PAGE. Dried gels were analyzed by exposure to phosphor storage screen (GE Healthcare) followed by scanning using a Molecular Imager FX Pro Plus System (Bio-Rad) and quantified by optical densitometry Quantity One (Bio-Rad). Measurements were calculated from three independent experiments. Significant differences were calculated by Prism 7 (GraphPad Software) with ANOVA analysis. Impact of short integrin β5 peptide on kinase activity was assessed using a radioactive assay with a LIM kinase peptide (RKKRYTVVGN, LIMtide) as substrate. The concentration of PAK4 and LIMtide were kept constant at 0.2 and 50 µM, respectively. […] Duplicate measurements were calculated from three independent experiments. […]

PAK4-cat = test: Pull-down of purified recombinant PAK4-cat by His-tagged integrin tails on Ni-NTA beads; format: binding, human
Method: Pull down assays were performed as previously described[45],[60]. Briefly, constructs encoding an N-terminal His-tag followed by a helical region, a 4-glycine spacer, and an integrin cytoplasmic tail sequence were produced in BL21 (DE3) bacteria. Following bacterial cell lysis, recombinant protein was bound to Ni-NTA beads, eluted with imidazole, dialyzed and further purified by reverse-phase high-performance liquid chromatography (HPLC). Purified protein was lyophilized for storage and was used to coat fresh Ni-NTA beads to generate an affinity matrix for pull-down assays.
as §1

PAK4 = molecular target: T1, PAK4 (Homo sapiens, UniProt O96013); test: In vitro phosphorylation of integrin β5 tail by PAK4; format: biochemical; conditions: in vitro kinase assay, Fig. 5a
T1 construct: catalytic domain of PAK4 (UniProt ID:O96013) was sub-cloned into a modified pET28a vector; 6xHis (TEV-cleavable) (N); made in house; host or cells: E. coli BL21-CodonPlus(DE3)RILP
T1 sequence (O96013 321-572 limits assumed): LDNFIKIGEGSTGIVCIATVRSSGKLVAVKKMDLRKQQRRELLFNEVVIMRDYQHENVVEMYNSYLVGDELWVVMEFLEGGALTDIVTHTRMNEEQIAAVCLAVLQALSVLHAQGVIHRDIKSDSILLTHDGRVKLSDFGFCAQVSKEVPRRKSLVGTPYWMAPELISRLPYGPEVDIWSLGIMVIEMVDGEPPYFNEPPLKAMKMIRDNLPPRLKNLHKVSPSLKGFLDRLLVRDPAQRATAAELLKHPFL

B5 746-758: GST-fusion truncation of integrin β5 tail ending at residue 758 (VTIHDRREFAKFQ; also: GST fusion, end not given here; UniProt P18084 746-758, looked up, fragment)
PAK4 Cat bound (pull-down quantification) (GFP-PAK4-cat; bound band as fraction of input, replicate column 1 of 7): 0.2198
PAK4 Cat bound (pull-down quantification) (GFP-PAK4-cat; replicate column 6 of 7): 0.1642
PAK4 Cat bound (pull-down quantification) (GFP-PAK4-cat; replicate column 7 of 7): 0.1513
PAK4 Nterm bound (pull-down quantification) (GFP-PAK4-Δcat; replicate 3): 0
PAK4 Nterm bound (pull-down quantification) (GFP-PAK4-Δcat; replicate 4): 0.03887
PAK4 Nterm bound (pull-down quantification) (GFP-PAK4-Δcat; replicate 5): 0.08311
PAK4 Nterm bound (pull-down quantification) (GFP-PAK4-Δcat; replicate 6): 0
PAK4 Nterm bound (pull-down quantification) (GFP-PAK4-Δcat; replicate 7): 0

B5 746-762: GST-fusion truncation of integrin β5 tail ending at residue 762 (VTIHDRREFAKFQSERS; also: GST fusion, end not given here; UniProt P18084 746-762, looked up, fragment)
PAK4 Cat bound (pull-down quantification) (GFP-PAK4-cat; replicate column 6 of 7): 0.1712
PAK4 Cat bound (pull-down quantification) (GFP-PAK4-cat; replicate column 7 of 7): 0.5556
PAK4 Nterm bound (pull-down quantification) (GFP-PAK4-Δcat; replicate 6): 0
PAK4 Nterm bound (pull-down quantification) (GFP-PAK4-Δcat; replicate 7): 0

integrin β5 cytoplasmic tail: Recombinant His-tagged integrin β5 cytoplasmic tail, residues 743–799 (KLLVTIHDRREFAKFQSERSRARYEMASNPLYRKPISTHTVDFTFNKFNKSYNGTVD; also: 6xHis tag)
Phosphorylation of integrin β5 by PAK6 (PAK6): does not display strong phosphorylation
Effect on PAK4 catalytic activity (PAK4cat): suppression of catalytic activity
PAK4Cat bound to tail (pull-down quantification) (PAK4-cat; 5 nM PAK4Cat, replicate 2): 4.211
PAK4Cat bound to tail (pull-down quantification) (PAK4-cat; 50 nM PAK4Cat, replicate 1): 47.6856
PAK4Cat bound to tail (pull-down quantification) (PAK4-cat; 50 nM PAK4Cat, replicate 2): 66.5041
PAK4Cat bound to tail (pull-down quantification) (PAK4-cat; 100 nM PAK4Cat, replicate 1): 90.1913
PAK4Cat bound to tail (pull-down quantification) (PAK4-cat; 100 nM PAK4Cat, replicate 2): 166.368
PAK4Cat bound to tail (pull-down quantification) (PAK4-cat; 200 nM PAK4Cat, replicate 1): 112.727
PAK4Cat bound to tail (pull-down quantification) (PAK4-cat; 200 nM PAK4Cat, replicate 2): 69.6949
PAK4Cat bound to tail (pull-down quantification) (PAK4-cat; 500 nM PAK4Cat, replicate 1): 260.384
PAK4Cat bound to tail (pull-down quantification) (PAK4-cat; 500 nM PAK4Cat, replicate 2): 185.982
PAK4Cat bound to tail (pull-down quantification) (PAK4-cat; 750 nM PAK4Cat, replicate 2): 239.04
PAK4Cat bound to tail (pull-down quantification) (PAK4-cat; 1000 nM PAK4Cat, replicate 1): 443.221
PAK4Cat bound to tail (pull-down quantification) (PAK4-cat; 1000 nM PAK4Cat, replicate 2): 367.326
PAK4Cat bound to tail (pull-down quantification) (PAK4-cat; 2000 nM PAK4Cat, replicate 2): 619.089
PAK4Cat bound to tail (pull-down quantification) (PAK4-cat; 2000 nM PAK4Cat, replicate 3): 750
PAK4Cat bound to tail (pull-down quantification) (PAK4-cat; 3000 nM PAK4Cat, replicate 1): 966.407
PAK4Cat bound to tail (pull-down quantification) (PAK4-cat; 3000 nM PAK4Cat, replicate 2): 705.982
PAK4Cat bound to tail (pull-down quantification) (PAK4-cat; 4000 nM PAK4Cat, replicate 2): 871.714
PAK4Cat bound to tail (pull-down quantification) (PAK4-cat; 5000 nM PAK4Cat, replicate 3): 875
PAK4Cat bound to tail (pull-down quantification) (PAK4-cat; Figure 1D source data, 5 nM PAK4Cat, replicate 1): 9.128
Kinase activity of PAK4 towards the integrin β5 tail (phosphorylation, words) (PAK4): negligible
